# Marks after values point to notes of the source that are not given here.
# System: chorioallantoic membrane (CAM)
# Assay: Effects of homoharringtonine in the early chicken chorioallantoic membrane (CAM) assay
# Format: in vivo
# Conditions: for CAM area, Day 4: Day 4 (start of treatment, matched groups); for CAM area, Day 4 / CAM increase (fold) / Artery length / CAM area, Day 5 / Relative artery length / Relative total vessel length / Relative vein length / Total vessel length / Vein length: mean ± SEM, n = 6; for CAM increase (fold): Day 4 to Day 5; for Artery length / CAM area, Day 5 / Relative artery length / Relative total vessel length / Relative vein length / Total vessel length / Vein length: Day 5
# Procedure: Fertilized chicken eggs (HiChick Breeding Co, Kapunda, South Australia) were incubated for three days at 38° C. On Day 3 the embryos were cracked out of the egg and into a cup made of plastic piping, with plastic film stretched over the top to form a hammock for the egg to be suspended in. Two ml of DMEM containing penicillin and streptomycin was added to each cup prior to the egg being added. A Petri dish on the top maintained sterility. Incubation continued in a humidified 37° C. incubator.
# On Day 4 the chorioallantoic membrane (CAM) begins to grow, and pictures were taken of each embryo at ×5 to measure the CAM area using image analysis software (Video Pro 32, Leading Edge Pty Ltd, South Australia). Embryos were then grouped according to their CAM area, with a control embryo in each for comparison. There were four matched embryos, treated with 6.25, 12.5 and 25 ng of homoharringtonine. Grouping is critical as in these early developmental stages changes in the CAM growth are dramatic. Relatively small differences in size on Day 4 translate to large differences in the CAM on Day 5, making it impossible to compare treatments. Substances were applied in methylcellulose discs, which were first dried under vacuum overnight. The methylcellulose discs were applied to the top of the CAM, and at the beginning of treatment were at least three to four-fold bigger than the CAM area, meaning treatment covered the entire CAM surface.
# On Day 5 skim milk with contrast medium was injected into the CAM. Pictures were then taken at various levels of magnification up to ×63. Quantitative measurements were made from ×5 pictures. CAM area, and vein and artery lengths were measured using image analysis (Video Pro 32, Leading Edge Pty Ltd, South Australia). Relative vessel lengths were then calculated as the total length/CAM area. Statistical analysis was made using SigmaStat and OneWay ANOVA with p<0.05 as the level of significance.
# FIG. 3A illustrates the normal organization of the CAM is uniform, with the major vein draining towards the left, and the artery branches coming over the edge of the top and bottom of the CAM. FIGS. 3B and 3C schematically illustrate tracing of the vein and artery branches, as performed for the measurement of vessel lengths.
# The angiogenic inhibitor, homoharringtonine, was obtained from ChemGenex Therapeutics, Inc. (Menlo Park, Calif.) and was made to the appropriate concentration in sterile water. […] Homoharringtonine was applied at 6.25, 12.5 and 25 ng (11.3, 22.5 and 45 nM) doses, and compared with water treated controls. Homoharringtonine reduced the growth of the CAM to 42% of the control in the 25 ng treated CAM. […] The vein, artery and total vessel lengths were reduced to 15%, 18% and 17% of control, respectively.
smiles,measurement,setting,value
"COC(=O)C[C@](O)(CCCC(C)(C)O)C(=O)O[C@@H]1C(OC)=C[C@]23CCCN2CCc2cc4c(cc2[C@H]13)OCO4 [Homoharringtonine, cephalotaxine, 4-methyl-2-hydroxy-2-(4-hydroxy-4-methylpentyl) butanediocate ester]","CAM area, Day 4",6.25 ng in methylcellulose disc,6.5 ± 1.6 pixels
same,CAM increase (fold),6.25 ng,7.0 ± 0.4 ^a fold
same,Artery length,6.25 ng,1573 ± 516^ pixels
same,"CAM area, Day 5",6.25 ng,45.3 ± 11.6 pixels
same,Relative artery length,6.25 ng,31.6 ± 4.5 ^a b length/CAM area
same,Relative total vessel length,6.25 ng,63.2 ± 7.7 ^b length/CAM area
same,Relative vein length,6.25 ng,31.6 ± 4.6 ^b length/CAM area
same,Total vessel length,6.25 ng,3055 ± 1003 pixels
same,Vein length,6.25 ng,1482 ± 499^ pixels
same,"CAM area, Day 4",12.5 ng in methylcellulose disc,6.3 ± 1.6^ pixels
same,CAM increase (fold),12.5 ng,9.0 ± 1.0 ^b fold
same,Artery length,12.5 ng,1787 ± 544 ^ pixels
same,"CAM area, Day 5",12.5 ng,53.0 ± 11.6^ pixels
same,Relative total vessel length,12.5 ng,60.1 ± 7.5 ^b length/CAM area
same,Relative vein length,12.5 ng,28.3 ± 4.4 ^b length/CAM area
same,Total vessel length,12.5 ng,3351 ± 953 ^ pixels
same,Vein length,12.5 ng,1564 ± 427 ^ pixels
same,embryo survival at 25 ng,25 ng dose,killed one of the smaller embryos
same,"artery length, % of control",25 ng group vs water control,18%
same,"total vessel length, % of control",25 ng group vs water control,17%
same,"vein length, % of control",25 ng group vs water control,15%
same,"CAM area, Day 4",25 ng in methylcellulose disc,6.2 ± 1.5 pixels
same,"growth of the CAM, % of the control",25 ng treated CAM vs water control,42%
same,CAM increase (fold),25 ng,4.3 ± 0.7 ^a fold
same,Artery length,25 ng,551 ± 265 ^a pixels
same,"CAM area, Day 5",25 ng,30.2 ± 9.9 ^ pixels
same,Relative artery length,25 ng,13.0 ± 4.3 ^a length/CAM area
same,Relative total vessel length,25 ng,24.3 ± 6.7 ^a length/CAM area
same,Relative vein length,25 ng,11.3 ± 3.5 ^a length/CAM area
same,Total vessel length,25 ng,909 ± 396 ^a pixels
same,Vein length,25 ng,359 ± 143 ^a pixels
same,embryo survival at the initial doses,"initial doses, above 25 ng, dose then reduced",resulted in the death of the embryos
CC(=O)O[C@H]1C(=O)[C@@]2(C)[C@H]([C@H](OC(=O)c3ccccc3)[C@]3(O)C[C@H](OC(=O)[C@H](O)[C@@H](NC(=O)c4ccccc4)c4ccccc4)C(C)=C1C3(C)C)[C@]1(OC(C)=O)CO[C@@H]1C[C@@H]2O [taxol],qualitative changes at higher magnification (FIG. 5),"homoharringtonine 25 ng, taxol dose not given, vs water control",diffuse leakage of the red blood cells outside the vessels and the skeletons of larger vessels with no remaining blood flow
